This note sets out measurements from patent US20190167593A1, “C[…] PHARMACEUTICALLY ACCEPTABLE SALT THEREOF, AND APPLICATION OF SAME” (priority 2016, published 2019).

One may read the solubility as the dissolved amount per volume that the medium holds. What is called IC50 is the point on the concentration scale where inhibition reaches its midpoint.

≈ marks a conversion by molar mass, not a printed value. Like-named read-outs stand apart in the source and are kept apart here.

The nature of series [1]: physchem. The format is physicochemical. The conditions noted are these: molar ratio compound:acid as listed per salt.
A further series relates to influenza virus PR8. The conditions noted are these: mouse, in vivo.
Series [2] in a line: physchem. The class given is physicochemical. Conditions: Non-lactic acid.
Series [3] has as its system A/Puerto Rico/8/34 (H1N1) (PR8). Briefly: organism not typed. The class given is cell-based. The conditions noted are these: MDCK cells, crystal violet staining, 3 days, read-out: IC50 against influenza virus replication (plaque formation), PR8.

Consider `CCCCS(=O)(=O)N[C@@H]1CCCN([C@@H]2C=C(C(=O)O)C[C@H](NC(=N)N)[C@H]2NC(C)=O)C1` [(3R,4R,5S)-4-acetamido-5-guanidino-3-((3R)-3-n-butylsulfonamidopiperidin)-1-cyclohexene-1-carboxylic acid], for which the “PH VALUE OF THE SOLUTION” value in “physchem [1]” turned out to be 7.8. Also, the solubility in “physchem [1]” (water, unit printed in b135 only) came to 2500 µg/mL; in “physchem [2]” (pH 7.8), 2500 µg/mL (≈ 5.45 mM). Moreover, the body weight result with influenza virus PR8 is given as “slightly decreased”. Also, the “pH VALUE” in “physchem [2]” was found to be 7.8. In addition, the IC50 was 0.253 µM in series [3] (listed as COMPOUND TO BE TESTED OF FORMULA I) and 0.25 µM in series [3] (MDCK, 72 h).
For `CCOC(=O)C1=C[C@@H](OC(CC)CC)[C@H](NC(C)=O)[C@@H](N)C1.O=P(O)(O)O` [Oseltamivir phosphate, ethyl (3R, 4R, 5S)-4-acetamido-5-amino-3-(1-ethylpropoxy)-1-cyclohexene-1-carboxylate phosphate], the disease symptoms entry in the series on influenza virus PR8 is listed as “obvious disease symptoms”. Moreover, the IC50 in series [3] (phosphate) was found to be 0.133 µM; in series [3] (MDCK, 72 h), 0.13 µM.
Regarding Peramivir, the IC50 in series [3] was 0.0176 µM.
